Assay results taken from patent US4866038A, “Method of stimulating integumental melanocytes by topical application of analogs of alpha-msh” (University Patents, Inc., priority 1988, dated 1989).
Non-standard residues stand in square brackets, D forms with d. Residues, ends and D or L forms follow the SMILES beside them. Phe(4-NO2) = N[C@@H](Cc1ccc([N+](=O)[O-])cc1)C(=O)O; Nle = CCCC[C@H](N)C(=O)O

Columns and labels:
[1] = tested on: TA-98 strain of S. typhimurium; assay: Ames microbacterial assay; conditions: for REVERTANTS PER PLATE WITH S-9 / REVERTANTS PER PLATE WITHOUT S-9 / […] PLATE WITHOUT S-9: TA-98, spontaneous revertants subtracted
Protocol: The Ames microbacterial assay was used for these tests which were performed both with and without a microsomal enzyme/NADPH generating system. Briefly, this test measures the number of reverse mutations which occur in special histidine-dependent strains of Salmonella typhimurium. Positives (mutations) are scored as the number of revertant cells which are able to form colonies in a histidine-deficient growth medium after exposure to a mutagenic substance.
All substances were dissolved in sterile 0.9% sodium chloride (without preservatives) to concentrations of 10^-2, 10^-3 and 10^-4 Molar. The TA-98 strain of S. typhimurium was used and experiments were performed with and without exposure to S-9 rat liver microsomal enzymes and an NADPH generating system. This enzyme cocktail can metabolically activate some compounds to mutagenic species. In addition to the melanotropins, Doxorubicin (Adriamycin™) was also simultaneously tested. […] It was thus included to act as a positive control. […] For the actual evaluation of revertants, the identity of the specific test compound was blinded.

frog (Rana pipiens) = format: cell-based
Protocol: (§1) Biological effect on in vivo and in vitro melanosome dispersion was examined using the frog (Rana pipiens) and the lizard (Anolis caroliniensis). [See Hadley et al., Science 213:1025-1027(1981)]; similar examinations were conducted with respect to the duration of its ability to stimulate melanosome dispersion in vitro using the skin bioassay as described in Shimume, Endrochrinology, 54:553-560(1954). The in vitro results are depicted in Table I.

[2] = tested on: lizard (Anolis caroliniensis); format: cell-based
Protocol: as §1

C57BL/6JA^y yellow mouse = assay: subcutaneous injection, follicular melanogenesis in the yellow mouse; format: in vivo
Description: Alpha-MSH and [Nle^4 D-Phe^7 ]--alpha-MSH were synthesized. Mice (C57BL/6JA^y) originally obtained from the Jackson Laboratories (Bar Harbor, ME) were raised in our laboratory with continuous access to food and water.
Melanotropins induce melanogenesis only during hair growth, and melanosomes are continuously incorporated into cells of the hair shaft as long as the hair remains in the anagen (proliferative) phase of the hair cycle. Eumelanin synthesis in only those hairs currently growing results in the formation of a pattern showing the specific areas on the animal in the anagen phase at the time of hormone injection.

[3] = tested on: Mice with some pigmentation on their skin; assay: topical Azone cream on mice with some skin pigmentation; format: in vivo, mouse; conditions: 1.8% azone, MSH 0.001% or 0.003%
Description: Example 4 was repeated with compositions comprising alpha-MSH or [Nle^4, D--Phe^7 ]-alpha-MSH in propylene glycol and 1-dodecylazacycloheptan-2-one [a synthetic polar surfactant previously known to enhance transdermal penetration of other compounds. See, e.g., Stoughton, R. B., Arch. Dematol. 118:479(1982); Stoughton, R. B. and W. O. McClure, Drug Devel. Indust. Pharm. 9(4):725(1983); (Azone)]. Although the vehicle was a solid at room temperature, it immediately softened and spread easily when applied to the shaved skin of the mouse.
In this example, the azone concentration was 1.8% and the MSH final concentration was either 0.001% (1mg/100g cream base) or 0.003%.
Mice with some pigmentation on their skin were treated with the same cream as Example 5.
The tails of the treated animals darkened in spite of not being directly treated topically.

C57BL/6JA^y mice = assay: topical application in PEG ointment, follicular melanogenesis in the mouse; format: in vivo
Description: An area (2-3 cm^2) of hair on the posterior dorsum of 48-day old mice was plucked; in mice of this age, hair follicles in the posterior dorsum are in the telogen (resting) phase of the hair cycle. Plucking hairs from resting follicles stimulates new hair growth and by 7 days later those hairs being erupting through the skin surface. Mice were fitted with cardboard collars to prevent investigation and spread of the ointment to non-treated areas of the skin and then housed individually in cages. The ointment containing [Nle^4, D-Phe^7 -]alpha-MSH (0.5 ml, 10^-6 M) was applied daily to the plucked area at the time of new hair eruption. A sample of emerging hair was removed prior to topical application of the melanotropin and every 24 hours thereafter for seven days.
Eumelanin was not visible within hairs taken from control mice. […] Only phaeomelanosomes were present in mice treated with the control ointment containing no melanotropin.

[4] = single injection 0.05 ml, 10^-6 M

In the case of `CCCC[C@H](NC(C)=O)C(=O)N[C@@H](CCC(=O)O)C(=O)N[C@@H](Cc1c[nH]cn1)C(=O)N[C@H](Cc1ccccc1)C(=O)N[C@@H](CCCNC(=N)N)C(=O)N[C@@H](Cc1c[nH]c2ccccc12)C(=O)NCC(N)=O` [Ac--[Nle^4 --D-Phe^7]--alpha-MSH4-10 --NH2], the “REVERTANTS PER PLATE WITH S-9” value ([1]; 10^-2 M) is reported as 0, the “REVERTANTS PER PLATE WITHOUT S-9” value ([1]; 10^-2 M) is reported as 0 and the “REVERTANTS PER PLATE WITH S-9” value ([1]; 10^-3 M) is reported as 0. The “REVERTANTS PER PLATE WITHOUT S-9” value ([1]; 10^-3 M) was 0, the “REVERTANTS PER PLATE WITH S-9” value ([1]; 10^-4 M) was 0 and the “REVERTANTS PER PLATE WITHOUT S-9” value ([1]; 10^-4 M) was 0. The “Relative Potency Frog” value (frog (Rana pipiens)) was 0.02.
`CCCC[C@H](NC(C)=O)C(=O)N[C@@H](CCC(=O)O)C(=O)N[C@@H](Cc1c[nH]cn1)C(=O)N[C@@H](Cc1ccc([N+](=O)[O-])cc1)C(=O)N[C@@H](CCCNC(=N)N)C(=O)N[C@@H](Cc1c[nH]c2ccccc12)C(=O)NCC(=O)N[C@@H](CCCCN)C(N)=O` [Ac--[Nle^ 4 --pNO2 Phe^7]--alpha-MSH4-11 --NH2] (Ac-[Nle]EH[Phe(4-NO2)]RWGK-NH2) was tested, and the “Relative Potency Frog” value (frog (Rana pipiens)) was 0.0009 and the “Relative Potency Lizard” value [2] was 0.20.
In the case of `COc1cccc2c1C(=O)c1c(O)c3c(c(O)c1C2=O)C[C@@](O)(C(=O)CO)C[C@@H]3O[C@H]1C[C@H](N)[C@H](O)[C@H](C)O1` [Adriamycin, Doxorubicin], the “[…] PLATE WITHOUT S-9” value ([1]; 10 µg/ml) is reported as 230, the “[…] PLATE WITHOUT S-9” value ([1]; 100 µg/ml) is reported as 1940 and the “[…] PLATE WITHOUT S-9” value ([1]; 1.0 g/ml) is reported as 0. For the same compound, the mutagenicity in vitro ([1]; TA-98, with and without S-9) was “significantly mutagenic”.
With “[Nle^4, D--Phe^7 ]--alpha-MSH [[Nle^4, D-Phe^7]-alpha-MSH]” the coat color change (C57BL/6JA^y yellow mouse; 14 consecutive daily injections) was “entire coat color was found to be changed”, the “duration of eumelanogenesis after the one injection” value (C57BL/6JA^y yellow mouse; [4]) was 96 h and the “time to shift from phaeomelanin production to eumelanin synthesis within hair bulbs” value (C57BL/6JA^y yellow mouse; [4]) was 24 h. The “histologic examination of pigment” value [3] was “increased pigment in the areas of non-follicular melancytes”, the “tail colour, tail not directly treated” value [3] was “darkened” and the “time to eumelanin within hair bulbs following application” value (C57BL/6JA^y mice; topical ointment 0.5 ml, 10^-6 M daily, microscopic examination) was ≤ 24 h. The “melanosomes within follicular melanocytes, electron microscopic examination” value (C57BL/6JA^y mice; topical ointment daily) was “presence of eumelanotic melanosomes within follicular melanocytes”.
